{"source": "patent US7662599B2", "about": "“Nucleic acids and polypeptides involved in the production of cryptophycin” (priority 2004, dated 2010)", "origin": "cited, not measured here", "details": "comparison in words"}
{"smiles": "COc1ccc(C[C@H]2NC(=O)/C=C/C[C@@H]([C@H](C)[C@H]3O[C@@H]3c3ccccc3)OC(=O)[C@H](CC(C)C)OC(=O)[C@H](C)CNC2=O)cc1Cl", "note": "[Cryptophycin 1]", "values": [{"measurement": "activity relative to other cryptophycins", "value": "the most active natural compound"}]}
